Experimental data reported in US20100021940A1, “Method for Determining the Activity of a Protease in a Sample” (ASTRAZENECA AB, priority 2006, published 2010).
Where “and” joins values, the source holds several entries; their conditions need not be identical. Equal entries are not always repeated.

Tests used:
[1] = test system: MMPs; assay: Cleavage of separated diastereomers by MMPs to liberate the reporter; assay type: biochemical
[2] = target: T1, MMP1 (Homo sapiens, UniProt P03956); assay: Activity of purified MMP on substrate (reporter release); assay type: biochemical; conditions: Table 1b; MMP1
T1 sequence (P03956 100-469): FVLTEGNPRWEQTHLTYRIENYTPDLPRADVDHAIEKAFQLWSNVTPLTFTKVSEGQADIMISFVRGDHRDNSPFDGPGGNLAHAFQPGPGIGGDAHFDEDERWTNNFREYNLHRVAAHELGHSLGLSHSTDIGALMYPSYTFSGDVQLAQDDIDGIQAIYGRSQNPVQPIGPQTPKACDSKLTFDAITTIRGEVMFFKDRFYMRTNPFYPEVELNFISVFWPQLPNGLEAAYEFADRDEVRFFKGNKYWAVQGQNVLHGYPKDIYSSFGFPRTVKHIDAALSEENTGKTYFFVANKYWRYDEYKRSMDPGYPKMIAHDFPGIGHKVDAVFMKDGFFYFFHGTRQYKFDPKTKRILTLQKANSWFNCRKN
From the text: (§1) In order to confirm the specificity of the substrates for various MMPs, standard enzymatic assays were adapted to monitor the release of reporter. The reporter was either analysed by a LC-MS method as described in Example 3a, or by a LC-UV method as described in Example 4. A protocol for testing against other matrix metalloproteinases, including MMP9, using expressed and purified pro MMP is described, for instance, by C.

[3] = target: MMP3 (Homo sapiens, UniProt P08254); assay: as above; assay type: biochemical; conditions: Table 1b; MMP3
From the text: as §1

[4] = target: T2, MMP8 (Homo sapiens, UniProt P22894); assay: as above; assay type: biochemical; conditions: Table 1b; MMP8
T2 construct: purchased Calbiochem
Protocol: In order to confirm the specificity of the substrates for various MMPs, standard enzymatic assays were adapted to monitor the release of reporter. The reporter was either analysed by a LC-MS method as described in Example 3a, or by a LC-UV method as described in Example 4. Purified pro-MMP8 is purchased from Calbiochem. The enzyme (at 10 μg/ml) is activated by p-amino-phenyl-mercuric acetate (APMA) at 1 mM for 2.5 h, 35° C. The activated enzyme can be used to monitor activity of substrates as follows: MMP8 (200 ng/ml final concentration) is incubated for 90 minutes at 35° C.

[5] = test system: MMP9; assay: as above; assay type: biochemical, human; conditions: Table 1b; MMP9
From the text: In order to confirm the specificity of the substrates for various MMPs, standard enzymatic assays were adapted to monitor the release of reporter. The reporter was either analysed by a LC-MS method as described in Example 3a, or by a LC-UV method as described in Example 4. […] The enzyme can be used to monitor activity of substrates as follows: […]

[6] = test system: MMP; assay: MMP activity in synovial fluid (reporter release, HPLC); assay type: biochemical, human
Protocol: Synovial fluid (SF) was obtained from patients with rheumatoid arthritis (7 subjects) and systemic lupus erythematosus (SLE) (1 subject).
The amount of each sample was adjusted so that approximately 4 mg of total protein was used in the assay (Table 13).
The samples were made up to 180 μl with a buffer consisting of 50 mM Tricine pH 7.5, 200 mM NaCl, 10 mM CaCl2, 20 μM ZnCl2 and 0.05% Brij-35.
To the samples was added 20 μl of the substrate Methyl 1-acetyl-L-prolyl-L-leucylglycyl-α-R-(4-nitrophenylamino)-glycyl-L-leucylglycinate (Example 1.2) solution (10 mM in methanol). After 3 h incubation at 37° C., the reaction was stopped with 5 μl 200 mM EDTA. The samples were filtered through a precolumn (Waters OASIS HLB Icc, part no. 94225, pre-conditioned with 1 ml of ethanol followed by 1 ml water) which was eluted with 1 ml water and 1 ml of 90% ethanol. The samples were evaporated to dryness under a stream of nitrogen, redissolved in 200 μl 50% ethanol and vigorously mixed with vortex mixer and centrifuged (1000 g, 2 min). Of the supernatant, 10-160 μl aliquots were analysed for the reporter 4-nitroaniline with HPLC (detection as in example 3 or with UV at […]). A standard curve was obtained by from samples spiked with quantified amounts of the reporter (4NA) and treated in the same way as the analytical samples.

Sequence of MMP3 (P08254 100-477): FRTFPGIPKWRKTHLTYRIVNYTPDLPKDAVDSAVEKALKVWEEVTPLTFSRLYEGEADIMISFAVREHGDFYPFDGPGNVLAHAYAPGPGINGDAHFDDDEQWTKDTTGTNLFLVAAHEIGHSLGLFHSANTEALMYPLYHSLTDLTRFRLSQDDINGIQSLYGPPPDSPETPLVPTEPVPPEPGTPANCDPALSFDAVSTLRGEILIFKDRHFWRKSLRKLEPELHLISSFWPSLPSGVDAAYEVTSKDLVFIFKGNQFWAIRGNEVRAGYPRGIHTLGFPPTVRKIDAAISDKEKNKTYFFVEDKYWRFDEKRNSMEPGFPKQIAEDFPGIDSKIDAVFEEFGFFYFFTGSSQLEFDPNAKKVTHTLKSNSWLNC
T2 sequence (P22894 101-467): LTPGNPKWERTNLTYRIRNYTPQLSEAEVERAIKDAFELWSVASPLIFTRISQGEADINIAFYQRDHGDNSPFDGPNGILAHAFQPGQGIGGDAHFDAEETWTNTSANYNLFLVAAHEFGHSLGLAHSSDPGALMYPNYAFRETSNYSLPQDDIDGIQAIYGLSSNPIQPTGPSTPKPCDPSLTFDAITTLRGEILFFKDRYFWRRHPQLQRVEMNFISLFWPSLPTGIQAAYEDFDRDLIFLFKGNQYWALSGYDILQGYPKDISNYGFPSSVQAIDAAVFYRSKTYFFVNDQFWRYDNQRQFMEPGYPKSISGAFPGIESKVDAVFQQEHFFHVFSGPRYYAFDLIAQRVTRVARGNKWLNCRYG

SMILES	Cleavage by MMPs to liberate the reporter [1]	Activity of selected substrates with MMPs [2]	Activity of selected substrates with MMPs [3]	Activity of selected substrates with MMPs [4]	Activity of selected substrates with MMPs [5]	release of reporter 4-biphenylmethanol ([6]; pooled sample of synovial fluid from all subjects in Table 13, same procedure) [nmol/ml SF]	4NA released (MMP activity in synovial fluid) ([6]; synovial fluid of individual subjects (rheumatoid arthritis, SLE), approx. 4 mg total protein, 3 h at 37° C.)
COC(=O)CNC(=O)[C@H](CC(C)C)NC(=O)[C@@H](NC(=O)CNC(=O)[C@H](CC(C)C)NC(=O)[C@@H]1CCCN1C(C)=O)OCc1ccc(-c2ccccc2)cc1 (single isomer, unassigned) [Example 1.3, Methyl 1-acetyl-L-prolyl-L-leucylglycyl-α-S-(biphenyl-4-ylmethoxy)-glycyl-L-leucylglycinate]	rapidly cleaved by MMPs	35.4 units/s (molRXH/molEnz * s)	5.5 units/s (molRXH/molEnz * s)	26.9 units/s (molRXH/molEnz * s)	63.6 units/s (molRXH/molEnz * s)	33.2	–
COC(=O)CNC(=O)[C@H](CC(C)C)NC(=O)[C@@H](NC(=O)CNC(=O)[C@H](CC(C)C)NC(=O)[C@@H]1CCCN1C(C)=O)Nc1ccc([N+](=O)[O-])cc1 [Example 1.2, Methyl 1-acetyl-L-prolyl-L-leucylglycyl-α-R-(4-nitrophenylamino)-glycyl-L-leucylglycinate]	rapidly cleaved by MMPs	–	–	–	–	–	94.4 nmol/ml SF and 17.4 nmol/ml SF and 15.9 nmol/ml SF and 23.9 nmol/ml SF and 26.4 nmol/ml SF and 16.5 nmol/ml SF and 20.6 nmol/ml SF and 12.0 nmol/ml SF
COC(=O)CNC(=O)[C@H](CC(C)C)NC(=O)[C@@H](NC(=O)CNC(=O)[C@H](CC(C)C)NC(=O)[C@@H]1CCCN1C(C)=O)Nc1ccc(-c2nnc(-c3ccc(C)cc3)o2)cc1 [Example 1.4, Methyl 1-acetyl-L-prolyl-L-leucylglycyl-α-R-[4-(5-p-tolyl-[1,3,4]oxadiazol-2-yl)-phenylamino]-glycyl-L-leucylglycinate]	rapidly cleaved by MMPs	0.00 units/s (molRXH/molEnz * s)	0.00 units/s (molRXH/molEnz * s)	0.05 units/s (molRXH/molEnz * s)	0.58 units/s (molRXH/molEnz * s)	–	–
CC(=O)N1CCC[C@H]1C(=O)N[C@@H](CC(C)C)C(=O)NCC(=O)N[C@@H](Nc1ccc([N+](=O)[O-])cc1)C(=O)N[C@@H](Cc1ccccc1)C(=O)Nc1ccccc1 [Example 1.5, 1-acetyl-L-prolyl-L-leucylglycyl-α-R-(4-nitrophenylamino)-glycyl-N-phenyl-L-phenylalaninamide]	rapidly cleaved by MMPs	2.48 units/s (molRXH/molEnz * s)	0.18 units/s (molRXH/molEnz * s)	11.4 units/s (molRXH/molEnz * s)	11.5 units/s (molRXH/molEnz * s)	–	–
